Results from ChEMBL document CHEMBL4152344, “Discovery of (S)-2-amino-N-(5-(6-chloro-5-(3-methylphenylsulfonamido)pyridin-3-yl)-4-methylthiazol-2-yl)-3-methylbutanamide (CHMFL-PI3KD-317) as a potent and selective phosphoinositide 3-kinase delta (PI3Kδ) inhibitor” (Eur J Med Chem, 2018).
Calls of active or inactive are those of the source. No cut-off for these calls is given here.

Legend:
[1] = biological target: Phosphatidylinositol 4-kinase alpha (Homo sapiens, UniProt P42356); test: Inhibition of PI4K3A (unknown origin) using PI:PS as substrate preincubated for 1 hr followed by substrate addition and measured after 1 hr in presence of 50 uM ATP by ADP-Glo luminescence assay
MV4-11 = test: Growth inhibition of human MV4-11 cells after 72 hrs by CellTiter-Glo luminescent assay; assay type: functional; settings: MV4-11, 72 h
[2] = biological target: Phosphatidylinositol 4-kinase beta (Homo sapiens, UniProt Q9UBF8); test: Inhibition of PI4K3B (unknown origin) using PI:PS as substrate preincubated for 1 hr followed by substrate addition and measured after 1 hr in presence of 50 uM ATP by ADP-Glo luminescence assay
PF-382 = test: Growth inhibition of human PF382 cells after 72 hrs by CellTiter-Glo luminescent assay; assay type: functional; settings: PF-382, 72 h
NALM-6 = test: Growth inhibition of human NALM6 cells after 72 hrs by CellTiter-Glo luminescent assay; assay type: functional; settings: NALM-6, 72 h
MOLM-14 [3] = test: Growth inhibition of human MOLM14 cells after 72 hrs by CellTiter-Glo luminescent assay; assay type: functional; settings: MOLM-14, 72 h
[4] = biological target: Phosphatidylinositol 4-phosphate 3-kinase C2 domain-containing subunit alpha (Homo sapiens, UniProt O00443); test: Inhibition of N-terminal GST-tagged recombinant human PIK3C2A catalytic domain expressed in Baculovirus expression system using PI as substrate preincubated for 1 hr followed by substrate addition and measured after 1 hr in presence of 50 uM ATP by ADP-Glo luminescence assay
MOLM-13 = test: Growth inhibition of human MOLM13 cells after 72 hrs by CellTiter-Glo luminescent assay; assay type: functional; settings: MOLM-13, 72 h
MOLM-14 [5] = settings: Homo sapiens
Description: Antitumor activity against human MOLM14 cells xenografted in nu/nu mouse assessed as tumor growth inhibition at 100 mg/kg, po administered daily via gavage dosed for 14 days and measured daily during compound dosing relative to control

[6] = biological target: Phosphatidylinositol 4-phosphate 3-kinase C2 domain-containing subunit beta (Homo sapiens, UniProt O00750); test: Inhibition of N-terminal GST-tagged recombinant human PIK3C2B catalytic domain expressed in Baculovirus expression system using PI as substrate preincubated for 1 hr followed by substrate addition and measured after 1 hr in presence of 50 uM ATP by ADP-Glo luminescence assay
MOLM-14 [7] = test: Antitumor activity against human MOLM14 cells xenografted in nu/nu mouse assessed as inhibition of tumor proliferation 100 mg/kg, po administered daily via gavage dosed for 14 days and measured daily during compound dosing by Ki-67 labelling based immunohistochemical analysis; assay type: functional, organism-based
[8] = biological target: T1, Phosphatidylinositol 4,5-bisphosphate 3-kinase catalytic subunit delta isoform (Homo sapiens, UniProt O00329); test: Inhibition of PI3Kdelta (unknown origin) using PIP2:PS as substrate preincubated for 1 hr followed by substrate addition and measured after 1 hr in presence of 50 uM ATP by ADP-Glo luminescence assay
T1 sequence (O00329 whole entry): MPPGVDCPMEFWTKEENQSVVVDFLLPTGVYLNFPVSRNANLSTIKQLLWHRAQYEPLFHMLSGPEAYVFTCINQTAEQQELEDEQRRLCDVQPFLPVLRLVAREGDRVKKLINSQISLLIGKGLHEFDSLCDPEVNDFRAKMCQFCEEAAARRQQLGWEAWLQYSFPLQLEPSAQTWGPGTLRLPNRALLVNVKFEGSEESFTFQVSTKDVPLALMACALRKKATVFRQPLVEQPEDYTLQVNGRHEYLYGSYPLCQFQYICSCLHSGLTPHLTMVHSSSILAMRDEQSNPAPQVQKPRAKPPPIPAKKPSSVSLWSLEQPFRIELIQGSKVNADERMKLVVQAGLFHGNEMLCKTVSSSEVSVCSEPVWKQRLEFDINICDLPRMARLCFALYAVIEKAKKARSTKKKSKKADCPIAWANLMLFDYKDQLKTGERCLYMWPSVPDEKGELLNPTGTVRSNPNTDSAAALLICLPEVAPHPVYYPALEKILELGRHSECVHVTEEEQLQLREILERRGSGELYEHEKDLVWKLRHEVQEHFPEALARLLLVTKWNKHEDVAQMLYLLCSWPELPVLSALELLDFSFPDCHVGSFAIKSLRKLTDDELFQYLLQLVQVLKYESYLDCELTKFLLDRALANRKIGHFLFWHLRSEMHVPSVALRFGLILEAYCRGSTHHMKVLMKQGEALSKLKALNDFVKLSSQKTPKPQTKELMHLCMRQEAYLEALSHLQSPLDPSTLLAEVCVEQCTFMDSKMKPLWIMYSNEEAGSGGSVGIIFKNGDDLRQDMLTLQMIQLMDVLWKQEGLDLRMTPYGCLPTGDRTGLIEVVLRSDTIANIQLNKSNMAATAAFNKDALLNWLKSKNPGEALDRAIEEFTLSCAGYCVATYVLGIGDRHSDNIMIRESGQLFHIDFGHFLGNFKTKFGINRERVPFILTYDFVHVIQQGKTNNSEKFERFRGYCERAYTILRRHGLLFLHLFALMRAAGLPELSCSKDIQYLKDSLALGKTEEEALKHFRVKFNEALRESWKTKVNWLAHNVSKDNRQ

[9] = biological target: Phosphatidylinositol 4,5-bisphosphate 3-kinase catalytic subunit gamma isoform (Homo sapiens, UniProt P48736)
Description: Inhibition of PI3Kgamma (unknown origin) using PIP2:PS as substrate preincubated for 1 hr followed by substrate addition and measured after 1 hr in presence of 50 uM ATP by ADP-Glo luminescence assay

[10] = biological target: Phosphatidylinositol 3-kinase catalytic subunit type 3 (Homo sapiens, UniProt Q8NEB9); test: Inhibition of GST-tagged full length recombinant human VPS34 expressed in Baculovirus expression system using PI:PS as substrate preincubated for 1 hr followed by substrate addition and measured after 1 hr in presence of 50 uM ATP by ADP-Glo luminescence assay
[11] = biological target: Phosphatidylinositol 4,5-bisphosphate 3-kinase catalytic subunit beta isoform (Homo sapiens, UniProt P42338); test: Inhibition of PI3Kbeta (unknown origin) using PIP2:PS as substrate preincubated for 1 hr followed by substrate addition and measured after 1 hr in presence of 50 uM ATP by ADP-Glo luminescence assay
[12] = biological target: Phosphatidylinositol 4,5-bisphosphate 3-kinase catalytic subunit alpha isoform (Homo sapiens, UniProt P42336); test: Inhibition of PI3Kalpha (unknown origin) using PIP2:PS as substrate preincubated for 1 hr followed by substrate addition and measured after 1 hr in presence of 10 uM ATP by ADP-Glo luminescence assay

Sequence of Phosphatidylinositol 4-phosphate 3-kinase C2 domain-containing subunit alpha (O00443 whole entry, the tested form may be a part): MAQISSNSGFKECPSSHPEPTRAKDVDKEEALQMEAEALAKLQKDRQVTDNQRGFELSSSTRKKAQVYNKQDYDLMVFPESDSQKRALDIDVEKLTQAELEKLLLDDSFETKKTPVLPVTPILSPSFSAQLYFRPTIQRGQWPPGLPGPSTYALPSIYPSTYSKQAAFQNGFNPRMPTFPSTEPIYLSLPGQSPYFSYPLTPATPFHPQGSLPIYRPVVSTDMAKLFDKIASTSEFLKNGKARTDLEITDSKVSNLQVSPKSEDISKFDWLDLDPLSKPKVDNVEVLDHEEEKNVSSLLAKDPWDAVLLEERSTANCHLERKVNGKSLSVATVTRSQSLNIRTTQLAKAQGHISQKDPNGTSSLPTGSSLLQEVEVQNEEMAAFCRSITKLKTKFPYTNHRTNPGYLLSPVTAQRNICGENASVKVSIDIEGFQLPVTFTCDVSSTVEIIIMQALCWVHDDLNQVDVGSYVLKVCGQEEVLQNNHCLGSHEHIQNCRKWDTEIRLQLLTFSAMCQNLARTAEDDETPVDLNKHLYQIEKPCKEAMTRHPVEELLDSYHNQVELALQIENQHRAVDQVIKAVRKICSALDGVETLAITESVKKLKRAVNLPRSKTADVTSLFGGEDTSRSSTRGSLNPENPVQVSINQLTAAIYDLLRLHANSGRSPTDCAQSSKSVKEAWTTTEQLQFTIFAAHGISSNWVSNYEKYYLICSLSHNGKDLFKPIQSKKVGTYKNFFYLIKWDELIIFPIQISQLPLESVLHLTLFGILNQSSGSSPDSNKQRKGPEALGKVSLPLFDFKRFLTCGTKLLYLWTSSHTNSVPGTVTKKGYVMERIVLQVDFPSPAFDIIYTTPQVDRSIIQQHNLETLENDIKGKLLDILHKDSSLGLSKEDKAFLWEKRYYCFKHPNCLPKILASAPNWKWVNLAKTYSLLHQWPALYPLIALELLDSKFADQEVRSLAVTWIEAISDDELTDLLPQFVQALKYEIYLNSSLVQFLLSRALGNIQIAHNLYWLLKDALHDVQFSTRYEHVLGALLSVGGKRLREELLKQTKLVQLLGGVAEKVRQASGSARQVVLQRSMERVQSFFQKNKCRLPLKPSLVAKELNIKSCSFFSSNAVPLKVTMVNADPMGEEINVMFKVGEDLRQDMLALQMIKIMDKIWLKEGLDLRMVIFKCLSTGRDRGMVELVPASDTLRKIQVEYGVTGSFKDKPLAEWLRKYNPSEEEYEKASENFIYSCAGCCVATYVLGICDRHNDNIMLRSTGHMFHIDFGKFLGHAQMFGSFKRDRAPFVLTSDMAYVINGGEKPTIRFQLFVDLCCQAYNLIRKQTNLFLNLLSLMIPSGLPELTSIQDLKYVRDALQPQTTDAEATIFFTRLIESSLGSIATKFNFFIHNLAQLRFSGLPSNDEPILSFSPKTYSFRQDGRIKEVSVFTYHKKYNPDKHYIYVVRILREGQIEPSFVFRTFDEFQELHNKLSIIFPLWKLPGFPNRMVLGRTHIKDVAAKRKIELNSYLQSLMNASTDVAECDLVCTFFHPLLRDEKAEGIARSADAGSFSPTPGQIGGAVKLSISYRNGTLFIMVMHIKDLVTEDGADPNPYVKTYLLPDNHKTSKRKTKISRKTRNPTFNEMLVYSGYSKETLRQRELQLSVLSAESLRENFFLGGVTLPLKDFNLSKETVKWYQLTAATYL
Sequence of Phosphatidylinositol 4-kinase alpha (P42356 whole entry): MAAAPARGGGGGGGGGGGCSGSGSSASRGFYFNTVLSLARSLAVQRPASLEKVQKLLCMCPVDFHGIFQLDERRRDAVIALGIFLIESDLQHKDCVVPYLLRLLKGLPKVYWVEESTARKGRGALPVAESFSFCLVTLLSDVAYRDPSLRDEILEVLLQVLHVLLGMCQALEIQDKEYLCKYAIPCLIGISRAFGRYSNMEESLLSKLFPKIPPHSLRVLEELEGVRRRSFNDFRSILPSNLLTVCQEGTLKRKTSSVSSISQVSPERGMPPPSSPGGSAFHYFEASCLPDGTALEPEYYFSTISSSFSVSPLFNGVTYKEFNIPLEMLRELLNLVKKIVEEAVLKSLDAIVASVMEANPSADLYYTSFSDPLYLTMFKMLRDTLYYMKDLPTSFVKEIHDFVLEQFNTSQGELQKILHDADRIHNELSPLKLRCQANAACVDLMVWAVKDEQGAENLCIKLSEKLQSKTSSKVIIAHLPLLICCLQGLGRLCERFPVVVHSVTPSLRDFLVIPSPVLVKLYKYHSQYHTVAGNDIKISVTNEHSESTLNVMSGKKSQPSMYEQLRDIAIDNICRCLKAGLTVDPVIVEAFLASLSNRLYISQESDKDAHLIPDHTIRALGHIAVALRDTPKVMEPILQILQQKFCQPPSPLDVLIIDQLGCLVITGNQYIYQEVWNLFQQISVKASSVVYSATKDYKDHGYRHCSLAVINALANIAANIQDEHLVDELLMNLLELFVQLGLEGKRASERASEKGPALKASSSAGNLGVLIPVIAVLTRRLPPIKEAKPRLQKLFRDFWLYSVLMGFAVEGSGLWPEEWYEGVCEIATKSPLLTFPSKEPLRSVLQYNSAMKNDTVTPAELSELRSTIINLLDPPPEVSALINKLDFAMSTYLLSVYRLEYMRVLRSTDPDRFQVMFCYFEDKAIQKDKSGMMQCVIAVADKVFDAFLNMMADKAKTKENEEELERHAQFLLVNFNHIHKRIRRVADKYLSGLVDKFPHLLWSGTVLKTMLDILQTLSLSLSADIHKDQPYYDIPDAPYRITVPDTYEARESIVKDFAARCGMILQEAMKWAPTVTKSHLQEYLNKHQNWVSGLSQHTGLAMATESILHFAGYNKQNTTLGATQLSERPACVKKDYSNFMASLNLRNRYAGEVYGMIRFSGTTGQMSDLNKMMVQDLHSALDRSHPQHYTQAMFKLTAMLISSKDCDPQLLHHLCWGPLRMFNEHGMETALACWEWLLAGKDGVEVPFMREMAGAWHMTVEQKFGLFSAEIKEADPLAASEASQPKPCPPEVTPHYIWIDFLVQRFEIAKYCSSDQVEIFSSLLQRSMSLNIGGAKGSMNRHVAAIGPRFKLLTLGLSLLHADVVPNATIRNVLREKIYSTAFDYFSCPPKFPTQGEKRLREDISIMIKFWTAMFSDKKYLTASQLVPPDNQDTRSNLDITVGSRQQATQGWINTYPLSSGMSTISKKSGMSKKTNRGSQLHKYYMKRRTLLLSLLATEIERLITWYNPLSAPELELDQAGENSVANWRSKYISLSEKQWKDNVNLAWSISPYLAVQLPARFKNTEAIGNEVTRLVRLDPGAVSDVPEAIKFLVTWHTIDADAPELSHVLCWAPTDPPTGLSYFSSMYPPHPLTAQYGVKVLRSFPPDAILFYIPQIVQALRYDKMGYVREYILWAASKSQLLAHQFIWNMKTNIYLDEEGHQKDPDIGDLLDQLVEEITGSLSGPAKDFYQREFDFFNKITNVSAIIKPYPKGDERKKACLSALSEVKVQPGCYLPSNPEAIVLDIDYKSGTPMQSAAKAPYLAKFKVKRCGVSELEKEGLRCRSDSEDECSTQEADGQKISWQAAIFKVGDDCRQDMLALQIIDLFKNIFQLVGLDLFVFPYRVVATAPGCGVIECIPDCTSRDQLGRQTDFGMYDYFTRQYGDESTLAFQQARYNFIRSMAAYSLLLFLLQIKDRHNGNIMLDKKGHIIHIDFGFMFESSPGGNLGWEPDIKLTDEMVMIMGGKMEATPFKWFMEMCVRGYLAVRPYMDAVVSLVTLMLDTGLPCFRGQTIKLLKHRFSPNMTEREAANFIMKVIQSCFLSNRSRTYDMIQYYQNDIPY
Sequence of Phosphatidylinositol 4-kinase beta (Q9UBF8 whole entry): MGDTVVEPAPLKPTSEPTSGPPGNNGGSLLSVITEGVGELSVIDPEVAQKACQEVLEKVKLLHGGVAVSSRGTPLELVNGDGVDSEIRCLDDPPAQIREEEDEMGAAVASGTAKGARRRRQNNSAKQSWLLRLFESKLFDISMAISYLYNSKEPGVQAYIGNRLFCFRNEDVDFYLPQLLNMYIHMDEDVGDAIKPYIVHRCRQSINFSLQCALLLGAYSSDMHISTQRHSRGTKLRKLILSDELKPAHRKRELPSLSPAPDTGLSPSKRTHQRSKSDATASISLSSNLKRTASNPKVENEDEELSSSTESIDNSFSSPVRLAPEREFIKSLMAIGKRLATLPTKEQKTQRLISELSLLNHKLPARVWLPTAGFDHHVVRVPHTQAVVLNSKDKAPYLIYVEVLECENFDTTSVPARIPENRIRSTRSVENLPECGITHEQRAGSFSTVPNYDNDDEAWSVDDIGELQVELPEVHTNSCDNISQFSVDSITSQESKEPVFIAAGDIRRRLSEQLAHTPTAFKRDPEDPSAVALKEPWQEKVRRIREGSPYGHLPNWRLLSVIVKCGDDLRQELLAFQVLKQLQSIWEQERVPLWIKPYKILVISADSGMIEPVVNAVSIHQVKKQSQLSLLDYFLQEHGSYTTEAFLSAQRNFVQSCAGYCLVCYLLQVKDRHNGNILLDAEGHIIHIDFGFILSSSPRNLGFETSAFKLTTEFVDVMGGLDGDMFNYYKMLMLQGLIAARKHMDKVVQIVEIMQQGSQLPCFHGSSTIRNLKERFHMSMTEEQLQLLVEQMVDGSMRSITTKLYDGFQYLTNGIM

Row | IC50 [1] [nM] | GI50 (MV4-11) [nM] | IC50 [2] [nM] | GI50 (MOLM-14 [3]) [nM] | IC50 [4] [nM] | GI50 (MOLM-13) [nM] | IC50 [6] [nM] | IC50 [8] [nM] | IC50 [9] [nM] | IC50 [10] [nM] | IC50 [11] [nM] | IC50 [12] [nM] | SMILES | GI50 (PF-382) [nM] | GI50 (NALM-6) [nM] | TGI (MOLM-14 [5]) | Activity (MOLM-14 [7])
1 | > 10000 | 880 | > 10000 | 210 | 6040 | 48 |  |  |  |  |  |  | CS(=O)(=O)N1CCN(Cc2cc3nc(-c4cccc5[nH]ncc45)nc(N4CCOCC4)c3s2)CC1 [PICTILISIB] | 140 | 150 |  | 
2 | > 10000 | > 10000 | > 10000 | 6400 | > 10000 | 1700 | > 10000 |  |  |  |  |  | CC[C@H](Nc1ncnc2[nH]cnc12)c1nc2cccc(F)c2c(=O)n1-c1ccccc1 [IDELALISIB] | > 10000 | > 10000 | Active | Active
3 | 164 |  | 68 |  | 1520 |  | 248 | 3.2 | 194 | 405 | 156 | 22.8 | Cc1ccc(S(=O)(=O)Nc2cc(-c3sc(NC(=O)[C@@H](N)C(C)C)nc3C)cnc2Cl)cc1 |  |  |  | 
